Values belong to the compound of their own block, whether it stands above or below them.
Key:
[1] = target: T1, Phosphodiesterase 7 (Homo sapiens, UniProt Q13946+Q9NP56); experiment: (§1) Inhibition of human phosphodiesterase 7; type: protein assay
[2] = target: T1, Phosphodiesterase 7; experiment: as §1; type: protein assay; remark: listed apart in the source
[3] = Inhibitory activity against phosphodiesterase 8
[4] = target: Phosphodiesterase 6; experiment: Inhibition of human phosphodiesterase 6; type: protein assay
[5] = target: cGMP-dependent 3',5'-cyclic phosphodiesterase (Homo sapiens, UniProt O00408); experiment: Inhibition of human phosphodiesterase 2
[6] = target: Phosphodiesterase 1 (Homo sapiens, UniProt P54750+Q01064+Q14123); experiment: Inhibition of human phosphodiesterase 1; type: protein assay
[7] = target: High affinity cGMP-specific 3',5'-cyclic phosphodiesterase 9A (Homo sapiens, UniProt O76083); experiment: Inhibition of human phosphodiesterase 9
[8] = target: cAMP and cAMP-inhibited cGMP 3',5'-cyclic phosphodiesterase 10A (Homo sapiens, UniProt Q9Y233); experiment: Inhibitory concentration value against phosphodiesterase 10
Chain of cAMP and cAMP-inhibited cGMP 3',5'-cyclic phosphodiesterase 10A (Q9Y233 whole entry): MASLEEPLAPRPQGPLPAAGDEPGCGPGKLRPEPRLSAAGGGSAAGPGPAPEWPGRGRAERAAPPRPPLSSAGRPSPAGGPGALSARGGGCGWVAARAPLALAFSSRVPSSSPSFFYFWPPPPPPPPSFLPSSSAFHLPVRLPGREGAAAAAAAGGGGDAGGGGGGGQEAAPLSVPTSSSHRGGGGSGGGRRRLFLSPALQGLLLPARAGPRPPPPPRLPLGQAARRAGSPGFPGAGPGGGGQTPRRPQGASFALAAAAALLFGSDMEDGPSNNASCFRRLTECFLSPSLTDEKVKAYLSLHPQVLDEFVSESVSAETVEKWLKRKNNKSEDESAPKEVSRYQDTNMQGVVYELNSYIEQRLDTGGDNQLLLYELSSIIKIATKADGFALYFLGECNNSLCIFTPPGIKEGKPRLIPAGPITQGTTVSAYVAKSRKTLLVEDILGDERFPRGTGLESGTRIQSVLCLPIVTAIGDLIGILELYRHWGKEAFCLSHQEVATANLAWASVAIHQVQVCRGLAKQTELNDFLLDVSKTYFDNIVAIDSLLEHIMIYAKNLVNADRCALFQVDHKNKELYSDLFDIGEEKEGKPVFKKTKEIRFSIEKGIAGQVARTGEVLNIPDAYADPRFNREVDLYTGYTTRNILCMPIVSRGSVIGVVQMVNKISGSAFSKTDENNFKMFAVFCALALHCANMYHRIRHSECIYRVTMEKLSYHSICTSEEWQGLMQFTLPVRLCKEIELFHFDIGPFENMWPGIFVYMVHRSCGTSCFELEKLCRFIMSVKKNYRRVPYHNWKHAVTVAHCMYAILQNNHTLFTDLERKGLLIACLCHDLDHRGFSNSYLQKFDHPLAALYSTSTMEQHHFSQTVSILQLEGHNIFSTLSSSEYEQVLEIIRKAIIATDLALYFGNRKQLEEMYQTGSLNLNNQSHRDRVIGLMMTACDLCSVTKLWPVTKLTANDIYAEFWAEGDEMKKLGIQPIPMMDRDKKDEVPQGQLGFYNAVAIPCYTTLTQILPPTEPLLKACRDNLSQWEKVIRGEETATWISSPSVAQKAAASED

T1 sequence (Q13946 whole entry, looked up): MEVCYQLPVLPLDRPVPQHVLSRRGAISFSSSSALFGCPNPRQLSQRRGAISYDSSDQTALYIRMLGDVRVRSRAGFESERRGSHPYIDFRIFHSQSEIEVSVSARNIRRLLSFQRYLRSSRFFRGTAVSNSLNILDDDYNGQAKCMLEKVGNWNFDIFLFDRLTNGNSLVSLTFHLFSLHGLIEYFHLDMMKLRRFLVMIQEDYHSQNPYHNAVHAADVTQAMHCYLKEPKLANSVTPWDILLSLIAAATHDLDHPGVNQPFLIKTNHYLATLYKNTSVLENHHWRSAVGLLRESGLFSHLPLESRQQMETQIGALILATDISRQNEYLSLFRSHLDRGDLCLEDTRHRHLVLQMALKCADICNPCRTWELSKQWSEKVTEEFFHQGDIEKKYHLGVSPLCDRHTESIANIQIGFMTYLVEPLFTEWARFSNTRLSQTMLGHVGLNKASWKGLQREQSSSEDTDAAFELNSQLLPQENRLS
T1 sequence (Q9NP56 whole entry, looked up): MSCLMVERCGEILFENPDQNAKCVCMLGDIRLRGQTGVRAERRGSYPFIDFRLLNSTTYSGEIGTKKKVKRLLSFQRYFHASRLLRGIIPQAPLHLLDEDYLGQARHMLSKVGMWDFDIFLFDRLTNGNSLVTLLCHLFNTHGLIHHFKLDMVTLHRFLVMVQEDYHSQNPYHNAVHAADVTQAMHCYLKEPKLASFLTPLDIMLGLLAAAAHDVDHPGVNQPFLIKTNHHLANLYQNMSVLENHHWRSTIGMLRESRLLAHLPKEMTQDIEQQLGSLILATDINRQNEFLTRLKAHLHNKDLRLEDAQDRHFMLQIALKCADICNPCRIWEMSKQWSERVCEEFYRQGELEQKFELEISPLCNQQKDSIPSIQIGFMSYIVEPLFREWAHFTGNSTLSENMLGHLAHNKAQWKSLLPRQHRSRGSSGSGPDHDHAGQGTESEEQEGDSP
Chain of cGMP-dependent 3',5'-cyclic phosphodiesterase (O00408 whole entry): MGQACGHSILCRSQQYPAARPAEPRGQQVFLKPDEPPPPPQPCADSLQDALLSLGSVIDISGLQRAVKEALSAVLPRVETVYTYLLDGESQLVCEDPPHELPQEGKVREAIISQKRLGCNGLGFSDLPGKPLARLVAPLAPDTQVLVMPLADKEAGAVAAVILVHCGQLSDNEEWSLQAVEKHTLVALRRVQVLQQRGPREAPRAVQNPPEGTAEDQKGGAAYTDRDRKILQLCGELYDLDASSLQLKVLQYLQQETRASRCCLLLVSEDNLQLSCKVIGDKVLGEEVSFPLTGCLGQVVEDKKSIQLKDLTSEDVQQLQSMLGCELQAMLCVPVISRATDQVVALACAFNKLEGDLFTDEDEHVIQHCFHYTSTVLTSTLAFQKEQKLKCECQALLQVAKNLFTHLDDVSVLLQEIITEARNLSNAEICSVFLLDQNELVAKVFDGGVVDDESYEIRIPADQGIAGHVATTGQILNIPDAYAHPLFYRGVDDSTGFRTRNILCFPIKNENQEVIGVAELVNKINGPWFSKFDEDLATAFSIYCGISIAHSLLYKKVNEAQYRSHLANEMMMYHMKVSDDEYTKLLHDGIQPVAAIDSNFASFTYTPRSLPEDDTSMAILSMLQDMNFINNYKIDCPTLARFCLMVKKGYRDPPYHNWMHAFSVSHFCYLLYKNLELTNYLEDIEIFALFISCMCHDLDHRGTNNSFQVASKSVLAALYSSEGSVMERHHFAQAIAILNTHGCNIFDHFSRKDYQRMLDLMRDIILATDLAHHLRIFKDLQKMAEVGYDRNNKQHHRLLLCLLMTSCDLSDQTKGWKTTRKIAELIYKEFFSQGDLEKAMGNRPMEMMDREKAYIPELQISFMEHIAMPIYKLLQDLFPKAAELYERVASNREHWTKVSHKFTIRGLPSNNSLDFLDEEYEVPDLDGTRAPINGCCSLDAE
Chain of High affinity cGMP-specific 3',5'-cyclic phosphodiesterase 9A (O76083 whole entry): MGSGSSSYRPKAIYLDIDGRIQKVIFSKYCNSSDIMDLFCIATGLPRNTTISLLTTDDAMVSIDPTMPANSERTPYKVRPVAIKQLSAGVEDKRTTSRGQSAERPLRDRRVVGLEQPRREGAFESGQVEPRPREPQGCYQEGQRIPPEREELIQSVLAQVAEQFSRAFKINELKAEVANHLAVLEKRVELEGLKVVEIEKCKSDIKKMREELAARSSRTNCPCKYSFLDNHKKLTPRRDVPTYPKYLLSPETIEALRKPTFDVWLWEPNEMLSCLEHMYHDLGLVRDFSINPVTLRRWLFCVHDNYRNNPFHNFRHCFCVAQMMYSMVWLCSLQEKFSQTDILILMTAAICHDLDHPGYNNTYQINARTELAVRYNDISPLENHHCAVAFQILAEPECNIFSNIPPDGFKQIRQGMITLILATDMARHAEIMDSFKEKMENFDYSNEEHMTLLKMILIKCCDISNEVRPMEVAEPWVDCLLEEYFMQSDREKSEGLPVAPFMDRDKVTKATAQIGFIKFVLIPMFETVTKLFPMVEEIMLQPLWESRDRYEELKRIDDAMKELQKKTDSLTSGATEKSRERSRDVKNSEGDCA

Inhibition [1]: 3.9 µM
SMILES: Cc1nc(N)c2ccc(-c3nn(C)/c(=N/C4CCCCC4)s3)cc2n1

Inhibition [1]: 1.5 µM
SMILES: Cn1nc(-c2ccc(Cl)cc2)s/c1=N\C1CCCCC1

Ki [2]: 0.6 µM
Ki [3]: 9 µM
Ki [4]: 0.125 µM
SMILES: OCCN(CCO)c1nc(N2CCCCC2)c2nc(N(CCO)CCO)nc(N3CCCCC3)c2n1 [DIPYRIDAMOLE]

Ki [5]: 1 µM
SMILES: CCCCCC[C@@H]([C@@H](C)O)n1cnc2c(N)ncnc21 [EHNA]

Ki [2]: 4 µM
SMILES: CC(C)Cn1c(=O)n(C)c(=O)c2nc[nH]c21 [ISOBUTYLMETHYLXANTHINE]

Ki [6]: 14 µM
SMILES: CCOC(=O)C1=C[C@]2(CC)CCCN3CCc4c(n1c1ccccc41)[C@@H]32 [VINPOCETINE]

Ki [7]: 35 µM
IC50 [8]: 22 µM
Ki [4]: 0.4 µM
SMILES: CCCOc1ccccc1-c1nc2[nH]nnc2c(=O)[nH]1 [ZAPRINAST]
